Source: patent US5010104A, “Tricyclic compounds” (Kyowa Hakko Kogyo Co., Ltd., priority 1987, dated 1991)

Key:
dd strain male mice = experiment: Acute Toxicity Test: minimum lethal dose, mortality observed for seven days; type: in vivo; conditions: mortality over seven days; for Acute Toxicity (MLD) ip: intraperitoneal (ip; 100 mg/kg); for Acute Toxicity (MLD) po: oral (po; 300 mg/kg)
Description: Using three dd strain male mice weighing 20±1 g, a test compound was orally (po; 300 mg/kg) or intraperiotoneally (ip; 100 mg/kg) administered. MLD (the minimum lethal dose) was determined by observing the mortality for seven days after administration.

[1] = target: T1, TXA2 /prostaglandin H2 receptor (Cavia porcellus, UniProt A0A286Y4I8); experiment: Test on Anti-platelet Activity (TXA2 Antagonizing Test): inhibition of U-46619-induced platelet aggregation in guinea pig platelet rich plasma; type: cell-based; conditions: minimum concentration inhibiting platelet aggregation by 30% or more; U-46619 0.5-1 μM; guinea pig PRP; 3 minutes pretreatment
T1 construct: platelet rich plasma (PRP) was collected; endogenous in cells; host or cells: platelets in platelet rich plasma from male guinea pigs (Hartley strain)
T1 sequence (A0A286Y4I8 1-347): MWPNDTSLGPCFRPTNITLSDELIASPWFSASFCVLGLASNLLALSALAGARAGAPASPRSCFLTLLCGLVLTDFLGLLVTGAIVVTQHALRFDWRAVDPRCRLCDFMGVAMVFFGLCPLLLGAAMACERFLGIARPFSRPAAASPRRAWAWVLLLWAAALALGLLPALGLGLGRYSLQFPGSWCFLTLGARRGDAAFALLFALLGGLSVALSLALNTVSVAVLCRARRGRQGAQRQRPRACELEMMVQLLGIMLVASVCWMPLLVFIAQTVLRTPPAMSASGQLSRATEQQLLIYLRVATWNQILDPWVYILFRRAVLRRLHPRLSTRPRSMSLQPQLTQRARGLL
Description: Test on Anti-platelet Activity (TXA2 Antagonizing Test)
Using guinea pig platelet, influence of the compounds in accordance with the present invention on platelet aggregation induced by U-46619 (9,11-dideoxy-9α,11a-methanoepoxyprostaglandin F2 α; manufactured by Cayman Chemica Co., Ltd. ) which was a TXA2 /prostaglandin H2 receptor stimulant was examined.
Male guinea pig (Hartlet strain; body weight, 300 to 600 g) was anesthesized by intraperitoneal administration of sodium pentobarbital (30 mg/kg) and blood was collected from the descending aorta of the abdomen with a 1/10 volume of sodium citrate. By centrifugation (KC-70: manufactured by Kubota Co., Ltd.) at 800 rpm for 10 minutes, platelet rich plasma (PRP) was collected. Platelet aggregation induced by U-46619 (0.5-1 μM) was determined by photometry [Born, G. V. R. et al., Nature (London), 194, 927-929 (1962)]. A test compound was pretreated before 3 minutes and an ability of inhibiting aggregation was measured. The minimum concentration of inhibiting platelet aggregation by 30% or more was defined as the minimum effective concentration (MEC) of the test compound.

Structure (SMILES)	Acute Toxicity (MLD) ip (dd strain male mice) [mg/kg]	Acute Toxicity (MLD) po (dd strain male mice) [mg/kg]	TXA2 Antagonizing Activity (MEC) [1] [µg/mL]
O=C(O)COc1ccc(CCNS(=O)(=O)c2ccccc2)cc1 [BM13177, reference compound]	> 100	> 300	3
O=C(O)c1ccc2c(c1)C(SCCNS(=O)(=O)c1ccccc1)c1cc(Br)ccc1CO2 (stereo not drawn) [Compound 6b, 9-Bromo-11-[2-[(phenylsulfonyl)amino]ethyl]thio-6,11-dihydrodibenz[b,e]oxepin-2-carboxylic acid]	> 100	> 300	0.03
O=C(O)c1ccc2c(c1)C(SCCNS(=O)(=O)c1ccc(F)cc1)c1ccccc1CO2 (stereo not drawn) [Compound 10b, 11-[2-[(4-Fluorophenylsulfonyl)amino]ethyl]thio-6,11-dihydrodibenz[b,e]oxepin-2-carboxylic acid]	> 100	> 300	0.3
O=C(O)c1ccc2c(c1)C(SCCNS(=O)(=O)c1cccs1)c1ccccc1CO2 (stereo not drawn) [Compound 15b, 11-[2-[(2-Thienylsulfonyl)amino]ethyl]thio-6,11-dihydrodibenz[b,e]oxepin-2-carboxylic acid]	> 100	> 300	0.3
O=C(O)c1ccc2c(c1)C(SCCNS(=O)(=O)c1cccc3cccnc13)c1ccccc1CO2 (stereo not drawn) [Compound 16b, 11-[2-[(8-Quinolylsulfonyl)amino]ethyl]thio-6,11-dihydrodibenz[b,e]oxepin-2-carboxylic acid]	> 100	> 300	3
COc1ccccc1C(=O)NCCSC1c2ccccc2COc2ccc(C(=O)O)cc21 (stereo not drawn) [Compound 33b, 11-[2-[(2-Methoxybenzoyl)amino]ethyl]thio-6,11-dihydrodibenz[b,e]oxepin-2-carboxylic acid]	> 100	> 300	0.3
O=C(O)c1ccc2c(c1)C(SCCNS(=O)(=O)c1ccccc1)c1ccccc1CS2 (stereo not drawn) [Compound 55b, 11-[2-[(Phenylsulfonyl)amino]ethyl]thio-6,11-dihydrodibenzo[b,e]thiepin-2carboxylic acid]	> 100	> 300	3
O=C(O)Cc1ccc2c(c1)/C(=C/CCNS(=O)(=O)c1ccccc1)c1ccccc1CO2 [Compound E-29b]	> 100	> 300	1
